The source of these data is US20050032863A1, “Method of treating or preventing central nervous system disorders with compounds having selectivity for the alpha 3 subunit of the benzodiazepine receptor” (priority 2003, published 2005).

Experiment [1] concerns female Wistar rats, MK-801-induced stereotypies, hyperactivity and ataxia. Description: MK-801-induced behaviour, rat model of psychosis (Example 1). Format: in vivo. The note with it: MK-801 0.2 mg/kg i.p. The procedure: The behaviour induced by the NMDA antagonist MK-801 is generally accepted as a rat model of psychosis. MK-801 induces stereotypies, hyperactivity and ataxia in rats after intraperitoneal administration.
Locomotor activity of the rats is recorded by the MotiTest Apparatus (TSE, Bad Homburg, Germany). The test area consisted of a squared arena ([…] with protective plexiglass walls (20 cm of height) where rats could freely move. Horizontal movements were recorded by 32 infrared photocells arranged along the bottom of each wall of the arena. Vertical movements (rearings) were recorded by a horizontal row of 32 infrared photocells 12 cm above the floor. The following parameters are measured by the computer program “ActiMot” (TSE, Bad Homburg, Germany): • active time [s] and total distance travelled [m]
Stereotypies, divided into stereotyped sniffing and other stereotypies, and ataxia are scored by the experimenter every five minutes for one hour (12 intervals) according to the method described by Andiné et al. (1999). The scores of the 12 intervals are added for each parameter.
The day of experiment the female rats are placed in the laboratory and receive the test compound, the reference substance or vehicle at the appropriate time prior to test. MK-801 0.2 mg/kg is intraperitoneally administered 10 minutes prior to test.
At the beginning of the test the rats are placed in the centre of the squared arena of the MotiTest apparatus. Behaviour of the rats is recorded for one hour. After each run animals are removed and the boxes thoroughly cleaned and dried.

For another experiment, the system named is serotonine transporters. Nature of the experiment: Uptake of serotonine in a synaptosomal preparation. It counts as biochemical.
Setting [2] is: 30 mg/kg p.o. 1 h prior to test.

As to `O=C1N=C(N2CCCCC2)CN1c1ccc(Cl)cc1` [ELB139, 1-(4-chlorophenyl)-4-piperidinoimidazolin-2-one], in experiment [1] (setting [2]), the MK-801-induced ataxia entry is on record as “significantly reversed”, the MK-801-induced other stereotypies entry is “significantly reversed”, the MK-801-induced stereotyped sniffing result is on record as “significantly reversed” and the MK-801-stimulated activity entry is reported as “did not reduce”. Besides, the “total distance travelled increased by MK-801” value in experiment [1] (setting [2]) is “distinctly reduced”. For the same compound, the “all parameters induced by MK-801” value in experiment [1] (60 mg/kg p.o. 1 h prior to test) is reported as “significantly reduced all parameters”. In addition, the uptake of serotonine result in the experiment on serotonine transporters is “no effect”.
